In patent publication US7741354B2, “Inhibitors of glutaminyl cyclase” (Probiodrug AG, priority 2006, dated 2010):

Biological target: hQC (Homo sapiens, UniProt Q16769)
Assay: Fluorometric (fluorescent) assay of hQC inhibition, IC50
Assay type: biochemical
Details: read-out: IC50
Experimental: All compounds were immediately tested regarding their activity as hQC inhibitors.
The purity of the compounds was determined by HPLC-MS. The IC50 value against hQC was measured using the fluorescent assay.
All measurements were performed with a BioAssay Reader HTS-7000Plus for microplates (Perkin Elmer) at 30° C. QC activity was evaluated fluorometrically using H-Gln-βNA. The samples consisted of 0.2 mM fluorogenic substrate, 0.25 U pyroglutamyl aminopeptidase (Unizyme, Horsholm, Denmark) in 0.2 M Tris/HCl, pH 8.0 containing 20 mM EDTA and an appropriately diluted aliquot of QC in a final volume of 250 μl. Excitation/emission wavelengths were 320/410 nm. The assay reactions were initiated by addition of glutaminyl cyclase. QC activity was determined from a standard curve of β-naphthylamine under assay conditions. One unit is defined as the amount of QC catalyzing the formation of 1 μmol pGlu-βNA from H-Gln-βNA per minute under the described conditions.
In a second fluorometric assay, QC was activity determined using H-Gln-AMC as substrate. Reactions were carried out at 30° C. utilizing the NOVOStar reader for microplates (BMG labtechnologies). The samples consisted of varying concentrations of the fluorogenic substrate, 0.1 U pyroglutamyl aminopeptidase (Qiagen) in 0.05 M Tris/HCl, pH 8.0 containing 5 mM EDTA and an appropriately diluted aliquot of QC in a final volume of 250 μl. Excitation/emission wavelengths were 380/460 nm. The assay reactions were initiated by addition of glutaminyl cyclase. QC activity was determined from a standard curve of 7-amino-4-methylcoumarin under assay conditions. The kinetic data were evaluated using GraFit sofware.
For inhibitor testing, the sample composition was the same as described above, except of the putative inhibitory compound added. For a rapid test of QC-inhibition, samples contained 4 mM of the respective inhibitor and a substrate concentration at 1 KM. For detailed investigations of the inhibition and determination of Ki-values, influence of the inhibitor on the auxiliary enzymes was investigated first. […] The inhibitory constant was evaluated by fitting the set of progress curves to the general equation for competitive inhibition using GraFit software.

Chain of hQC (Q16769 29-361): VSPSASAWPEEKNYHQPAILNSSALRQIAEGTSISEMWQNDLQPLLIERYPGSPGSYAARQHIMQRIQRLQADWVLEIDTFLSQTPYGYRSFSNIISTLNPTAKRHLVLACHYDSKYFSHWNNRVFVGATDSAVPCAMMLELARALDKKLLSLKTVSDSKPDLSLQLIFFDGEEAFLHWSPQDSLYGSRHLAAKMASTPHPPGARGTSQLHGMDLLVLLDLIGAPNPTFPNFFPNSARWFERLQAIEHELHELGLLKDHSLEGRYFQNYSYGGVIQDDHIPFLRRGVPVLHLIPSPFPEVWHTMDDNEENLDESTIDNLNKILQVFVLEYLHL

Row | SMILES | IC50
1 | C1=CO[C@H](C(NCCCn2ccnc2)c2nnnn2C2CC2)CC1 (stereo partly drawn) [compound 71, [(S)-(1-Cyclopropyl-1H-tetrazol-5-yl)-3,4-dihydro-2H-pyran-2-yl-methyl]-(3-imidazol-1-yl-propyl)-amine] | 9.4 µM
2 | COc1ccc(C(Nc2ccc3[nH]cnc3c2)c2nnnn2C2CCCCC2)cc1 (centres unmarked) [compound 72, (1H-Benzoimidazol-5-yl)-[(1-cyclohexyl-1H-tetrazol-5-yl)-(4-methoxy-phenyl)-methyl]-amine] | 2.2 µM
3 | c1ccc(CC(Nc2ccc3[nH]cnc3c2)c2nnnn2Cc2cccnc2)cc1 (centres unmarked) [compound 73, (1H-Benzoimidazol-5-yl)-[2-phenyl-1-(1-pyridin-3-ylmethyl-1H-tetrazol-5-yl)-ethyl]-amine] | 5.8 µM
4 | CCCOc1cccc(C(Nc2ccc3[nH]cnc3c2)c2nnnn2Cc2cccnc2)c1 (centres unmarked) [compound 74, (1H-Benzoimidazol-5-yl)-[(3-propoxy-phenyl)-(1-pyridin-3-ylmethyl-1H-tetrazol-5-yl)-methyl]-amine] | 2.2 µM
5 | COc1ccc(C(Nc2ccc3[nH]cnc3c2)c2nnnn2Cc2ccc(Cl)cc2)c(C)c1 (centres unmarked) [compound 75, (1H-Benzoimidazol-5-yl)-[[1-(4-chloro-benzyl)-1H-tetrazol-5-yl]-(4-methoxy-2-methyl-phenyl)-methyl]-amine] | 2.2 µM
6 | c1ccc(-c2ccc(C(Nc3ccc4[nH]cnc4c3)c3nnnn3CC3CCCO3)cc2)nc1 (centres unmarked) [compound 76, (1H-Benzoimidazol-5-yl)-{(4-pyridin-2-yl-phenyl)-[1-(tetrahydro-furan-2-ylmethyl)-1H-tetrazol-5-yl]-methyl}-amine] | 3.1 µM
7 | COc1ccc(C(Nc2ccc3[nH]cnc3c2)c2nnnn2Cc2ccccc2Cl)c(C)c1 (centres unmarked) [compound 77, (1H-Benzoimidazol-5-yl)-[[1-(2-chloro-benzyl)-1H-tetrazol-5-yl]-(4-methoxy-2-methyl-phenyl)-methyl]-amine] | 1.3 µM
8 | c1ccc2c(C(Nc3ccc4[nH]cnc4c3)c3nnnn3CC3CCCO3)csc2c1 (centres unmarked) [compound 78] | 1.3 µM
9 | c1ccc2oc(C(Nc3ccc4[nH]cnc4c3)c3nnnn3C3CCCCC3)cc2c1 (centres unmarked) [compound 79, [Benzofuran-2-yl-(1-cyclohexyl-1H-tetrazol-5-yl)-methyl]-(1H-benzoimidazol-5-yl)-amine] | 3.1 µM
10 | Cc1ccc2c(C(Nc3ccc4[nH]cnc4c3)c3nnnn3CC3CCCO3)c[nH]c2c1 (centres unmarked) [compound 80, (1H-Benzoimidazol-5-yl)-{(6-methyl-1H-indol-3-yl)-[1-(tetrahydro-furan-2-ylmethyl)-1H-tetrazol-5-yl]-methyl}-amine] | 6.7 µM
11 | Fc1ccc2c(C(Nc3ccc4[nH]cnc4c3)c3nnnn3C3CCCCC3)c[nH]c2c1 (centres unmarked) [compound 81, (1H-Benzoimidazol-5-yl)-[(1-cyclohexyl-1H-tetrazol-5-yl)-(6-fluoro-1H-indol-3-yl)-methyl]-amine] | 3.1 µM
12 | CCc1ccc(C(Nc2ccc3[nH]cnc3c2)c2nnnn2Cc2cccnc2)cc1 (centres unmarked) [compound 82, (1H-Benzoimidazol-5-yl)-[(4-ethyl-phenyl)-(1-pyridin-3-ylmethyl-1H-tetrazol-5-yl)-methyl]-amine] | 4 µM
13 | Cc1ccc(C(Nc2ccc3[nH]cnc3c2)c2nnnn2CC2CCCO2)cc1C (centres unmarked) [compound 83, (1H-Benzoimidazol-5-yl)-{(3,4-dimethyl-phenyl)-[1-(tetrahydro-furan-2-ylmethyl)-1H-tetrazol-5-yl]-methyl}-amine] | 4.9 µM
14 | CCOC(=O)C1CCCCC1n1nnnc1C(Nc1ccc2[nH]cnc2c1)c1ccc(Cl)c(F)c1 (centres unmarked) [compound 84] | 6.7 µM
15 | COC(=O)c1cccc(C(Nc2ccc3[nH]cnc3c2)c2nnnn2Cc2ccc(Cl)cc2)c1 (centres unmarked) [compound 85, 3-{(1H-Benzoimidazol-5-ylamino)-[1-(4-chloro-benzyl)-1H-tetrazol-5-yl]-methyl}-benzoic acid methyl ester] | 1.3 µM
16 | Cc1ccc2occ(C(Nc3ccc4[nH]cnc4c3)c3nnnn3CC3CCCO3)c(=O)c2c1 (centres unmarked) [compound 86, 3-{(1H-Benzoimidazol-5-ylamino)-[1-(tetrahydro-furan-2-ylmethyl)-1H-tetrazol-5-yl]-methyl}-6-methyl-chromen-4-one] | 9.4 µM
17 | CC(C)(C)OC(=O)Cn1nnnc1C(Nc1ccc2[nH]cnc2c1)c1ccc(Br)cc1 (centres unmarked) [compound 87, {5-[(1H-Benzoimidazol-5-ylamino)-(4-bromo-phenyl)-methyl]-tetrazol-1-yl}-acetic acid tert-butyl ester] | 1.3 µM
18 | COc1ccc(C(Nc2ccc3[nH]cnc3c2)c2nnnn2CC2CCCO2)cc1 (centres unmarked) [compound 88, (1H-Benzoimidazol-5-yl)-{(4-methoxy-phenyl)-[1-(tetrahydro-furan-2-ylmethyl)-1H-tetrazol-5-yl]-methyl}-amine] | 4.9 µM

Row | SMILES | IC50
19 | COc1cccc(C(Nc2ccc3[nH]cnc3c2)c2nnnn2CC2CCCO2)c1 (centres unmarked) [compound 89, (1H-Benzoimidazol-5-yl)-{(3-methoxy-phenyl)-[1-(tetrahydro-furan-2-ylmethyl)-1H-tetrazol-5-yl]-methyl}-amine] | 7.6 µM
20 | Clc1ccccc1Cn1nnnc1C(Nc1ccc2[nH]cnc2c1)c1cc2ccccc2o1 (centres unmarked) [compound 90, {Benzofuran-2-yl-[1-(2-chloro-benzyl)-1H-tetrazol-5-yl]-methyl}-(1H-benzoimidazol-5-yl)-amine] | 22.2 µM
21 | CC(C)(C)OC(=O)Cn1nnnc1C(Nc1ccc2[nH]cnc2c1)c1ccc(Cl)c(F)c1 (centres unmarked) [compound 91, {5-[(1H-Benzoimidazol-5-ylamino)-(4-chloro-3-fluoro-phenyl)-methyl]-tetrazol-11-yl}-acetic acid tert-butyl ester] | 4 µM
22 | C/C=C/C=C/C(Nc1ccc2[nH]cnc2c1)c1nnnn1CC1COC(C)(C)O1 (centres unmarked) [compound 92, (1H-Benzoimidazol-5-yl)-{(2E,4E)-1-[1-(2,2-dimethyl-[1,3]dioxolan-4-ylmethyl)-1H-tetrazol-5-yl]-hexa-2,4-dienyl}-amine] | 4.9 µM
23 | CC(Cc1ccc2c(c1)OCO2)C(Nc1ccc2[nH]cnc2c1)c1nnnn1CC1CCCO1 (centres unmarked) [compound 93, {3-Benzo[1,3]dioxol-5-yl-2-methyl-1-[1-(tetrahydro-furan-2-ylmethyl)-1H-tetrazol-5-yl]-propyl}-(1H-benzoimidazol-5-yl)-amine] | 7.6 µM
24 | CCOC(=O)C1CCCCC1n1nnnc1C(Nc1ccc2[nH]cnc2c1)c1ccc(Cl)cc1 (centres unmarked) [compound 94] | 9.4 µM
25 | CSCCC(Nc1ccc2[nH]cnc2c1)c1nnnn1C(c1ccccc1)c1ccccc1 (centres unmarked) [compound 95, [1-(1-Benzhydryl-1H-tetrazol-5-yl)-3-methylsulfanyl-propyl]-(1H-benzoimidazol-5-yl)-amine] | 4.9 µM
26 | Cc1ccc(C(C)CC(Nc2ccc3[nH]cnc3c2)c2nnnn2C2CCCCC2)o1 (centres unmarked) [compound 96, (1H-Benzoimidazol-5-yl)-[1-(1-cyclohexyl-1H-tetrazol-5-yl)-3-(5-methyl-furan-2-yl)-butyl]-amine] | 4.9 µM
27 | CC(CC(Nc1ccc2[nH]cnc2c1)c1nnnn1CC1CCCO1)c1ccccc1 (centres unmarked) [compound 97, (1H-Benzoimidazol-5-yl)-{3-phenyl-1-[1-(tetrahydro-furan-2-ylmethyl)-1H-tetrazol-5-yl]-butyl}-amine] | 4 µM
28 | CCCC(C)C(Nc1ccc2[nH]cnc2c1)c1nnnn1CC(=O)N1CCc2ccccc2C1 (centres unmarked) [compound 98, 2-{5-[1-(1H-Benzoimidazol-5-ylamino)-2-methyl-pentyl]-tetrazol-1-yl}-1-(3,4-dihydro-1H-isoquinolin-2-yl)-ethanone] | 6.7 µM
29 | COc1cc(C)c(C(Nc2ccc3[nH]cnc3c2)c2nnnn2C(C)(C)C)cc1C (centres unmarked) [compound 99] | 8.5 µM
30 | CC(c1ccccc1)C(Nc1ccc2[nH]cnc2c1)c1nnnn1CC1CCCO1 (centres unmarked) [compound 100, (1H-Benzoimidazol-5-yl)-{2-phenyl-1-[1-(tetrahydro-furan-2-ylmethyl)-1H-tetrazol-5-yl]-propyl}-amine] | 7.6 µM
31 | c1ccc2oc(C(Nc3ccc4[nH]cnc4c3)c3nnnn3CC3CCCO3)cc2c1 (centres unmarked) [compound 101, {Benzofuran-2-yl-[1-(tetrahydro-furan-2-ylmethyl)-1H-tetrazol-5-yl]-methyl}-(1H-benzoimidazol-5-yl)-amine] | 4.9 µM
32 | c1ccc2ncc(C(Nc3ccc4[nH]cnc4c3)c3nnnn3CC3CCCO3)cc2c1 (centres unmarked) [compound 102, (1H-Benzoimidazol-5-yl)-{quinolin-3-yl-[1-(tetrahydro-furan-2-ylmethyl)-1H-tetrazol-5-yl]-methyl}-amine] | 2.2 µM
33 | CCOC(=O)C1CCCCC1n1nnnc1C(Nc1ccc2[nH]cnc2c1)c1ccc(Br)cc1 (centres unmarked) [compound 103] | 4.9 µM
34 | CCOC(=O)C1CC1C(Nc1ccc2[nH]cnc2c1)c1nnnn1CCc1cccs1 (centres unmarked) [compound 104] | 4 µM
35 | c1nc2cc(NC(c3ccc4nsnc4c3)c3nnnn3CC3CCCO3)ccc2[nH]1 (centres unmarked) [compound 105] | 4.9 µM
